Reference: article PMC10507961, “Development of an amoxicillin-radix scutellaria extract formulation and evaluation of its pharmacokinetics in pigs” (BMC Veterinary Research, 2023)
≈ marks a conversion by molar mass, not a printed value.

How the values were obtained:
[1] = Moisture absorption percentage test; type: physicochemical
Protocol: Sample dried to a constant weight (1 g) was placed in a 5 mL flat weighing bottle, shaken gently to evenly distribute the sample, weighed accurately, put it in a dryer containing supersaturated sodium chloride solution (the weighing bottle is opened), and weighed after 24 h (n = 3). The moisture absorption percentage was calculated according to the following formula: Moistureabsorptionpercentage(%)=weightaftermoistureabsorption-weightbeforemoistureabsorption/weightbeforemoistureabsorption×100%

[2] = Angle of repose test; type: physicochemical; conditions: fixed funnel method
Protocol: The fixed funnel method was used to measure the angle of repose. A funnel was fixed at a height of 3 cm above coordinate paper (the paper was placed on a horizontal table), and materials were added through the funnel until the top of the accumulated cone came into contact with the bottom of the funnel. The cone diameter was measured, and the angle of repose was calculated with the ratio of the distance between the funnel and paper to the cone radius as the tangent.

[3] = Second pharmacokinetic study in pigs (three doses of AMO-RSE powder); type: in vivo; conditions: p.o. AMO-RSE powder, tested dose range (AMO 10–30 mg/kg, BCL 5–15 mg/kg)
Text: Twelve healthy Landrace × Large White hybrid pigs, half male and half female, with an average body weight of 15 ± 3.2 kg (range 11–18 kg), were randomly divided into two groups (three male and three female pigs in each group) for pharmacokinetics experiments and were purchased from JuCong agriculture, Nanning, Guangxi. Commercial feed and water free of antibiotics and target drugs were freely available to the pigs housed individually in 12 pig pens. After the experiment, the pigs were released.
Pig jugular vein blood was collected in an anticoagulant tube, and centrifuged at 3000 rpm for 10 min, and the separated plasma was stored at -20 ℃. The plasma sample was placed at room temperature for natural thawing, and it was mixed evenly with a vortex, 1 mL of the plasma sample was accurately measure and placed it in a 10 mL centrifuge tube with a cover. […]
Using HPLC to measured the content of AMO. […] The limits of detection and quantification of amoxicillin in the plasma were 0.03 and 0.1 µg/ml, respectively.
The content of BCL were measured using HPLC. […] The limits of detection and quantification of […] in the plasma were 0.03 and 0.1 µg/ml, respectively. […]
The concentrations of AMO and BCL in plasma at each time point are expressed as the arithmetic mean ± SD. The pharmacokinetic parameters were calculated by using noncompartmental analysis based on statistical moment theory. […]

[4] = system: Escherichia coli; experiment: Antibacterial susceptibility test (MIC), E. coli; type: cell-based; conditions: 15 strains, MIC range, read-out: AMO MIC
Protocol: (§1) Fifteen strains of E. coli, 16 strains of […], and 16 strains of […] were provided by the Department of Pharmacology and Toxicology of China Agricultural University. The minimum inhibitory concentration (MIC) of AMO and RSE was tested in the bacteria mentioned above; this method was previously reported by Jiarong Cao, et al.. Amoxicillin or baicalin was added to a sterile 96-well plate with multiple dilutions from low to high concentrations from the first well to the tenth well, with 100 μL per well. 100 μL of bacterial solution was added to a concentration of 1 × 10^6 CFU/mL. 200 μL of the bacterial solution was added to the 11th well as positive control, and 200 μL of broth was added to the 12th well as a negative control. The MIC test of quality control bacteria was carried out at the same time in each test. The 96-well plate was placed in a 37 ℃ incubator for 18 to 24 h, and the results were observed and recorded. The experiment was repeated three times.

[5] = system: Streptococcus; experiment: Antibacterial susceptibility test (MIC), Streptococcus; type: cell-based; conditions: 16 strains, MIC range
Protocol: as §1

[6] = system: Salmonella; experiment: Antibacterial susceptibility test (MIC), Salmonella; type: cell-based; conditions: read-out: AMO MIC
Protocol: The minimum inhibitory concentration (MIC) of AMO and RSE was tested in the bacteria mentioned above; this method was previously reported by Jiarong Cao, et al..
Amoxicillin or baicalin was added to a sterile 96-well plate with multiple dilutions from low to high concentrations from the first well to the tenth well, with 100 μL per well. 100 μL of bacterial solution was added to a concentration of 1 × 10^6 CFU/mL. 200 μL of the bacterial solution was added to the 11th well as positive control, and 200 μL of broth was added to the 12th well as a negative control. The MIC test of quality control bacteria was carried out at the same time in each test. The 96-well plate was placed in a 37 ℃ incubator for 18 to 24 h, and the results were observed and recorded. The experiment was repeated three times.

moisture absorption percentage, rank among five excipients [1] | angle of repose [2] [°] | SMILES | dose linearity of pharmacokinetics [3] | MIC [4] [mg/L] | AMO MIC [5] [mg/L] | MIC ([5]; read-out: AMO MIC) [mg/L] | MIC [6] [mg/L]
lowest | 41.44 | OC[C@H]1OC(O)[C@H](O)[C@@H](O)[C@@H]1O (some centres unmarked) [glucose] | – | – | – | – | –
– | – | CC1(C)S[C@@H]2[C@H](NC(=O)[C@H](N)c3ccc(O)cc3)C(=O)N2[C@H]1C(=O)O [AMO, Amoxicillin] | linear pharmacokinetic properties | 1 to 8 (≈ 2.74 to 21.9 µM) | 1 to 128 | 0.5 to 64 (≈ 1.37 to 175 µM) | 0.25 to 32 (≈ 0.684 to 87.6 µM)
– | – | O=C(O)[C@H]1O[C@@H](Oc2cc3oc(-c4ccccc4)cc(=O)c3c(O)c2O)[C@H](O)[C@@H](O)[C@@H]1O [BCL, baicalin] | linear pharmacokinetic properties | – | – | – | –
